This is an account of results in patent US20080221129A1, “New compounds” (priority 2006, published 2008).

Structures are written as SMILES.

The experiment deals with T1, stearoyl-CoA desaturase (SCD) (Rattus norvegicus, UniProt P07308).
T1 construct: 0.032 mg/ml rat liver microsomes (total protein content); from tissue
T1 sequence (P07308 1-358): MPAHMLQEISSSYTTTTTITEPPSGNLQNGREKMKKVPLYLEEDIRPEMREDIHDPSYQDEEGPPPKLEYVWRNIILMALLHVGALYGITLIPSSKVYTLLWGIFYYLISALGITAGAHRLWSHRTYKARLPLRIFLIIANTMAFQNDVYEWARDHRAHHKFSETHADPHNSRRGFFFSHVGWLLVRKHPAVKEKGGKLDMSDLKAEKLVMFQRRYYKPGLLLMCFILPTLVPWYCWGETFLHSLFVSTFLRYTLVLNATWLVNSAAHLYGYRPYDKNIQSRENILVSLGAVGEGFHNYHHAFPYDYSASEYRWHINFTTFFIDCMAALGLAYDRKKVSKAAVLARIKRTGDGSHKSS
In words: Tritium release screening assay for inhibition of stearoyl-CoA desaturase activity in rat liver microsomes. The class given is biochemical, rat (Male Sprague-Dawley). The conditions noted are these: [3H]-stearoyl-CoA, 20 min pre-incubation, 20 min reaction, 384- or 96-well format. An excerpt: Another measure of SCD activity was introduced by Talamo and Bloch in 1969 [Talamo & Bloch (1969) Anal. Biochem. 29, 300-304]. This method is based on the quantification of a second product of the desaturase reaction, i.e. the water molecule that is released in the desaturase reaction. The quantification is based on the use of a long chain acyl-CoA substrate, e.g. stearoyl-CoA, that is specifically labeled with tritium in positions 9 and 10 of the carbon chain such that the released water is also tritiated ([^3H]-H2O). The remaining [^3H]-stearoyl-CoA as well as the product [^3H]-oleyl-CoA must then be separated from the solution before the tritiated water content can be measured by means of liquid scintillation. Talamo and Bloch acid precipitated the long chain acyl-CoAs followed by filtration to achieve this separation, but this separation can also be achieved by means of centrifugation instead of filtration [Johnson & Guhr (1971) Lipids 6, 78-84]. An alternative procedure that involves precipitation by ethanol and activated charcoal followed by centrifugation has also been described [Shanklin and Somerville (1991) Proc. Natl. Acad. Sci. USA 88, 2510-2514]. Based on these studies it is clear that near perfect separation is required for optimal assay performance. When applying this assay it is important to recognize that the apparent desaturation rate is impacted by isotope effects as described by Johnson and Gurr in 1971 [Johnson & Guhr (1971) Lipids 6, 78-84]. Thus whereas the assay serves as an excellent measure of relative SCD activity it must be calibrated using other methods when absolute measures of enzyme activity are needed. The pros and cons of this assay have also been summarized in the literature [Gurr & Robinson (1972) Anal. Biochem. 47, 146-156]. An abundant source of stearoyl-CoA desaturase activity can be found in microsomal preparations from the liver of rats that have been subjected to a fasting-refeeding procedure on a low fat/high carbohydrate diet [reviewed in Ntambi (1999) J. Lipid Res. 40, 1549-1558]. However, microsomal preparations are not a pure source of SCD activity and this means that the added stearoyl-CoA substrate is subject also to other enzymatic processes. It is therefore essential to include reagents that allow regeneration of the stearoyl-CoA substrate as described by Bertram and Erwin [Bertram & Erwin (1981) J. Protozool. 8, 127-131].
The tritium release assay for the measurement of SCD activity is thus well documented in the literature. Descriptions on how these finding have been used to produce standard screening assays in 96-well plates are also available [Brownlie, Hayden, Attie, Ntambi, Gray-Keller, & Miyazaki (2001) WO 01/62954; Wu, Gallipoli, Gallagher, & Gardell (2004) WO 2004/04776]. […]
(Liver microsomes are vesicles of endoplasmic reticulum, rich in cytochrome P450 enzymes.)
`Cc1nc2c(C(=O)NCC3CCCO3)cnn2c(C)c1Cc1cccc(Br)c1` (stereo not shown) [6-(3-bromobenzyl)-5,7-dimethyl-N-(tetrahydrofuran-2-ylmethyl)pyrazolo[1,5-a]pyrimidine-3-carboxamide] had an IC50 of 140 ± 67 nM. The same measure for `COCCNC(=O)c1cnn2c(C)c(Cc3ccccc3)c(C)nc12` [Example 1, 6-benzyl-N-(2-methoxyethyl)-5,7-dimethylpyrazolo[1,5-a]pyrimidine-3-carboxamide]: 1000 ± 400 nM; for `COc1cccc(Cc2c(C)nc3c(C(=O)NCCNC(C)=O)cnn3c2C)c1` [Example 8, N-[2-(Acetylamino)ethyl]-6-(3-methoxybenzyl)-5,7-dimethylpyrazolo-[1,5-a]pyrimidine-3-carboxamide]: 830 ± 240 nM. The same measure for `CCOCCCNC(=O)c1cnn2c(C)c(Cc3cccc(F)c3)c(C)nc12` [Example 24, N-(3-ethoxypropyl)-6-(3-fluorobenzyl)-5,7-dimethylpyrazolo[1,5-a]-pyrimidine-3-carboxamide]: 700 ± 110 nM.

As a reminder, the IC50 is the midpoint of a concentration-inhibition curve. A lower IC50 goes with higher potency.
